Holding throughout (format): biochemical
Assay [1] deals with T1, DNA gyrase (wild-type GyrA + GyrB) (Staphylococcus aureus, UniProt P20831).
T1 construct: wild-type GyrA from strain FDA209P; with GyrB
Put plainly: in vitro DNA cleavage assay and DNA supercoiling assay with recombinant gyrase.

Assay [2] deals with T2, topoisomerase IV (wild-type ParC) (Staphylococcus aureus, UniProt Q2FYS4).
T2 construct: wild-type ParC from strain FDA209P; with ParE
Put plainly: in vitro DNA cleavage assay with recombinant topoisomerase IV.

In assay [3] the target is T3, DNA gyrase (GyrA S84L + wild-type GyrB) (Staphylococcus aureus, UniProt Q932M0).
T3 construct: GyrA(S84L) from strain Mu50; with GyrB
Put plainly: in vitro DNA cleavage assay and DNA supercoiling assay with recombinant gyrase.

For `C[C@H]1COc2c(N3CCN(C)CC3)c(F)cc3c(=O)c(C(=O)O)cn1c23` [Levofloxacin], the “in vitro DNA cleavage assay and DNA supercoiling assay with recombinant gyrase” value in assay [1] is recorded as “using levofloxacin as a compound of interest, failure of DNA supercoiling activity was decreased upon acquisition of S84L mutation”. For the same compound, the IC50 in assay [2] is 1.38 µM.

Regarding `COc1ccc2c(=O)cc(-c3ccc(O)c(OC)c3)oc2c1` [CID12261165], in assay [3], the IC50 worked out at 4 µg/mL.

For orientation: IC50 means the concentration at which inhibition is half-maximal.

Values taken from paper PMC9889749, “CID12261165, a flavonoid compound as antibacterial agents against quinolone-resistant Staphylococcus aureus” (Scientific Reports, 2023).
